Test results published in a melting point compilation (Tetko et al.; mined from patent text by program, amines drawn as free bases though some values may be those of a salt).

Row | melting point [°C] | Compound
1 | > 300 | O=C(O)c1ccc(-c2nc(-c3ccncc3)cs2)cc1
2 | 213 to 215 | CC1(C)CNc2cc3[nH]c(-c4cccnc4)nc3cc21
3 | 128 to 132 | OC1(c2ccccn2)CCNCC1
4 | 117 to 119 | OC1CCN(CC(O)c2cc(-c3ccccc3)on2)CC1 (stereo not drawn)
5 | 75 to 77 | O=C(C=C(O)c1cccnc1)C1CCN(CCc2ccccc2)CC1
6 | 136 to 138 | COC(=O)c1nc(-c2ccccc2)c(-c2ccc(=O)n(C(C)C)n2)cc1C#N
7 | 123 to 125 | FC(F)(F)c1ccc(-c2cc(C(F)(F)F)c(Br)nn2)cc1
8 | 172 to 174 | Nc1ccc(Br)c(-c2nc3ncccc3o2)c1
9 | 174 to 175 | CC1(COc2ccc(S(=O)(=O)C3SC(=O)NC3=O)cc2)CCCCC1 (stereo not drawn)
10 | 103 | Cc1ccc(Cn2[nH]c(N)cc2=O)cc1C(F)(F)F
11 | 176 to 180 | CCOCc1nc2c(N)nc3cc(OCCCCCCNS(C)(=O)=O)ccc3c2n1CC(C)(C)NS(C)(=O)=O
12 | 163 to 165 | NC(=O)c1c(Cl)ccc([N+](=O)[O-])c1Cl
13 | 171 to 173 | Cn1nnc(-c2ccc3c(c2)c(C2=CCN(CCc4nnnn4C)CC2)cn3-c2ccc(F)cc2)n1
14 | 190 to 192 | CCCCCCCN(Cc1ccc(C(C)(C)C)cc1)C(Nc1ccc(-c2ccccc2)cc1)=C1C(=O)COC1=O
15 | 96 to 98 | CCOC(=O)N1CCN(C2Cc3cc(C)ccc3Sc3ccccc32)CC1 (stereo not drawn)
16 | 180 to 182 | COc1ccn2nc(-c3ccccc3)c(-c3ccc(=O)n(C(C)C)n3)c2c1
17 | 155 to 158 | c1cncc(-c2cc(Oc3ccc4cccnc4c3)ncn2)c1
18 | 150 to 152 | COC(=O)C(NC(=O)c1ccccc1)c1ccc(-c2ccc(S)cc2)cc1 (stereo not drawn)
19 | 267 to 270 | Cc1cc(C(=O)Nc2ccc(C(=O)O)cc2)no1
20 | 189 to 191 | CC(C)c1ccc2oc(C=Cc3ccc(C#N)cc3)cc(=O)c2c1
21 | 184 to 185 | O=C(O)C(=O)CC(=O)c1cccn1Cc1ccc(Br)cc1
22 | 128 to 130 | CS(=O)(=O)c1ccc(C(Cc2ccc(F)cc2)C(=O)Nc2nc3ccc(CO)cc3o2)cc1 (stereo not drawn)
23 | 145 to 148 | O=C(O)C(=O)CC(=O)c1cccn1Cc1ccc(F)c(F)c1

Row | melting point [°C] | Compound
24 | 192 | OC[C@@H]1Cc2ccccc2CN1C(=S)Nc1cccnc1
25 | 114 to 117 | COc1ccc(C(C#Cc2ccccc2)CNC(C)=O)cc1OC1CCCC1 (racemic)
26 | 131 to 133 | COc1ccc(N(CCCC(=O)N(CCCC(=O)O)c2c(C)cccc2C)C(=O)c2ccc(Cl)cc2)cc1
27 | 76 to 79 | CCOC(=O)N(c1cccc(C(F)(F)F)c1)c1ccccc1N=NC(NC(=O)CCl)(C(=O)OCC)C(=O)OCC
28 | 172 to 175 | CC(=O)ON1C(C)(C)CC(OC(=O)c2ccccc2C(=O)OC2CC(C)(C)N(OC(C)=O)C(C)(C)C2)CC1(C)C
29 | 64.5 to 66 | c1csc(-c2cnc(-c3cccs3)o2)c1
30 | 162 | CCn1nc(-c2ccc(OC)cc2)c(-c2ccc(OC)c(F)c2)cc1=O
31 | 248 | CCC1(C)C(=O)c2c(cc(O)c(Cl)c2Cl)C1c1ccccc1 (stereo not drawn)
32 | 218 | O=C(O)c1cc(-c2ccc(Cl)cc2)nn1Cc1ccc(Cl)cc1Cl
33 | 96 to 97.5 | CCOC(=O)C=Cc1ccc(-n2ccnc2)cc1
34 | 106 | CSc1ccc(C2=C(c3cccc(F)c3)C(=O)C(C)(C)O2)cc1
35 | 210 to 218 | CCCC12CCC3=C(CCc4cc(O)ccc43)C1CCC2O (stereo not drawn)
36 | 147 to 148 | COC(=O)c1ccc(O)c(-n2cccc2C=O)c1
37 | 127 to 128 | COc1cc(-c2ccccc2)c(C)cc1CC(=O)O
38 | 138 | CCn1cnc2c(C#N)nc(Cl)cc21
39 | 243 to 245 | CC1NC(C#N)=C(C#N)NC1=O (stereo not drawn)
40 | 306 | c1ccc(-n2c3ccccc3c3cc4c(cc32)c2ccccc2n4-c2ccccc2)cc1
41 | 253 to 255 | O=C(CCl)Nc1c(I)cc(I)c(C(=O)O)c1I
42 | 236 to 237 | COc1ccc(-c2cccc(Nc3nccc(-c4sc(N)nc4-c4ccccc4)n3)c2)cc1OC
43 | 77 | CCCc1n[nH]c(=O)n1C
44 | 206 to 207 | C[C@@H](c1ccc(F)cc1)N1CCN(c2cc(Nc3ccc4cccnc4c3)ncn2)CC1
45 | 61 to 63 | FC(F)(F)c1ccc(OCCC(Br)c2ccccc2)cc1 (stereo not drawn)
46 | 228 to 230 | O=C(O)CCN1CCN(c2cccc(C(F)(F)F)c2)CC1

Row | melting point [°C] | Compound
47 | 212 | Cc1c(C(=O)c2ccccc2)ccc(O)c1CC(=O)O
48 | 68 to 70 | CCCc1oc2ccccc2c1C(=O)c1ccc(OCCBr)cc1
49 | 304 | CN1CCN(C2=N/C(=C\c3c[nH]c4ncc(-c5ccccc5)cc34)C(=O)N2)CC1
50 | 138 to 139 | CC1=CC(O)C(O)C(C)(C)CC1O (stereo not drawn)
51 | 253 to 255 | Cn1c(=O)nc(-c2ccccc2)c2cc3c(cc21)OCO3
52 | 95 to 96 | CC(C)c1c(Cl)nc(NC=O)nc1Cl
53 | 185 to 190 | COc1ccc(C(=O)c2coc(C(=O)O)cc2=O)cc1
54 | 203 to 204 | COc1cc(NC(=O)/C=C/c2ccc(C(C)(C)C)cc2)ccc1O
55 | 223 to 225 | CCc1nc2c(N)nc3cc(OCCN(C(N)=O)C(C)C)ccc3c2n1CC1CCOCC1
56 | 143 to 145 | CC(C)(C)c1cc(SCc2ccc(C#N)cc2)cc(C(C)(C)C)c1O
57 | 188 to 198 | COc1ccc(N2Cc3cnc(Nc4ccccc4)nc3N([C@@H](C)CO)C2=O)c(F)c1
58 | 159 to 160 | COC1CC(NC(=O)C(F)(F)F)C(OCc2ccccc2)C(C)O1 (stereo not drawn)
59 | 159 to 160 | CCOC(=O)c1c(NCC(=O)c2ccc(C(F)(F)F)cc2)c2c(Cl)cc(Cl)cc2n1C(=O)OC(C)(C)C
60 | 80 to 83 | CC/C(=C(/C)C#N)c1cccc(O)c1
61 | 108 | CCCCOc1nc(=O)n(C(=O)NC)s1
62 | 79 to 80 | Cc1cc(C(O)c2ccccc2)sc1C (stereo not drawn)
63 | 134 to 135 | CC(C)n1nc(-c2sc(C(=O)NC3CC3)nc2-c2ccccc2F)ccc1=O
64 | 244 to 247 | CCCCOc1ccc(-c2ccc3c(c2)C=C(C(=O)O)CCS3(=O)=O)cc1
65 | 163 to 164 | CCOC(=O)c1cn(-c2ccc(Cl)cn2)cn1
66 | 195 to 196 | COC(=O)Nc1ccc(C(=O)O)cc1
67 | 157 to 159 | CC(=O)NNC(=N)CCCCn1cnc(NC(N)=NCC(F)(F)F)n1

Row | Compound | melting point [°C]
68 | Cc1cc(C2=NOC(c3cc(Cl)cc(Cl)c3)(C(F)(F)F)C2)ccc1C(=O)NC1CCCO1 (stereo not drawn) | 144 to 147
69 | CC(=O)c1sccc1CN1C(=O)C(NC(=O)Nc2cccc(C)c2)N=C(c2ccccc2F)c2ccccc21 (racemic) | 222 to 223
70 | N#Cc1nn(-c2c(Cl)cc(C(F)(F)F)cc2Cl)c(N)c1C#N | 221 to 222
71 | CC12CCC3C(CC(O)C4(O)CC(O)CCC34C)C1CCC2=O (stereo not drawn) | 304 to 306
72 | FC(F)(F)Oc1ccc2nc(Cc3cn4ccsc4n3)[nH]c2c1 | 177 to 179
73 | Clc1ccccc1C1=NCc2nnc(Cc3ccccc3)n2-c2sc3c(c21)CCNC3 | 192
